{"source": "patent US12540171B2", "about": "“Compositions and methods for treating ocular disease” (Asclepix Therapeutics, Inc., priority 2019, dated 2026)", "key": {"[1]": {"assay": "Gel formation and persistence in the vitreous after intravitreal injection", "procedure": "In FIG. 3, AXT107 was injected into the vitreous of Dutch-Belted rabbits. […] The retina with the optic nerve is visible in the back of the eye.\nIn FIG. 7, AXT107 was injected into the vitreous of Dutch-Belted rabbits in a PK toxicology study."}, "[2]": {"assay": "Drug levels in the retina after intravitreal injection, LC/MS/MS", "assay_type": "in vivo, Dutch-Belted rabbits", "details": "225, 271, and 315 days after a single injection", "protocol": "The rabbits were then sacrificed at various time points, and the various ocular tissues were separated. The drug levels in the retina were measured by Liquid chromatography-mass spectrometry (LC/MS/MS). The drug levels were plotted as ng/g. The Kd for binding of AXT107 to its integrin targets is 1-2 nM."}}, "note": "No end group written: not given here.", "data": [{"sequence": "LRRFSTAPFAFIDINDVINF [AXT107]", "values": [{"measurement": "gels in the vitreous at necropsy, PK toxicology study", "setting": "[1]; Dutch-Belted rabbits, 6 Months after administration, all doses", "value": "visible in the vitreous at all doses"}, {"measurement": "effect of gel on the visual axis", "setting": "[1]; rabbit eye, after intravitreal injection", "value": "does not block the visual axis"}, {"measurement": "time the gel stays in place without breaking apart or migrating", "setting": "[1]; rabbit eye, doses of 100 μg, 250 μg, 500 μg, and 1000 μg", "value": 15, "unit": "months"}, {"measurement": "release of peptide from gel", "setting": "[1]; rabbit vitreous", "value": "released the peptide in a sustained manner"}, {"measurement": "AXT107 level in the retina", "setting": "[2]", "value": "significant levels"}]}]}
